Results taken from US20080268535A1, “Method for Inducing the Differentiation of Human Myelogenous Leukemia Cells Into Megakarocytes or Thrombocytes” (EWHA University - Industry Collaboration Foundation, priority 2005, published 2008).
“Also recorded” adds a separate entry of the source.

Key:
Format in all cases: cell-based, human
K562 cells [1] = assay: MTT cytotoxicity assay of (R)-NALPCE; details: 10 to 50 μg/ml, 48 hrs incubation
Method: In order to examine whether the compound (R)-NALPCE is toxic to cells, MTT (3-[4,5-dimethylthiazol-2-yl]-2,5-diphenyltetrazolium bromide) assay was conducted in K562 cells which are the leukemia cells derived from human bone marrow. These cells were aliquoted at a density of 4×10^4 cells per well in 96-well plates and treated with various concentrations of (R)-NALPCE, followed by incubation for 48 hrs. Thereafter, an MTT solution was added in an amount of 20 μl to each well. Incubation at 37° C. for 4 hrs, treatment with a 20% sodium dodecyl sulfate (SDS) solution (in an equivolume mixture of N,N-dimethylformamide and distilled water), and incubation at 37° C. for 16 hrs were sequentially conducted in that order before the absorbance at 570 nm was read using an ELISA reader (Bio-Tek Instrument, Winiiski, Vt.). The assay was conducted in triplicate.

K562 cells [2] = assay: Differentiation inductivity, lineage receptor expression by FACS, K562 cells; details: K562 cells, 40 μg/ml (R)-NALPCE or 30 nM PMA, 4 days
Method: K562 cells were aliquoted at a density of 2×10^5 per well in 6-well plates and treated with 40 μg/ml of (R)-NALPCE or 30 nM of PMA (12-phorbol myristate-13-acetate, Calbiochem.), followed by incubation for 4 days. After centrifugation (1,000 rpm, 10 min), the cell pellets thus obtained were washed three times with 0.01% bovine serum albumin (BSA) in PBS. The cells were incubated with 10 μl of anti-CD41-fluorescein-5-isothiocyanate (FITC) (Dako Chemicals, Carpenteria, Calif.), 20 μl of anti-CD16-Cy-Chrome (Cy) (BD Pharmingen), 10 μl of anti-glycophorin ACD235a-phycoerythrin (PE) (Dako Chemicals, Carpenteria, Calif.), and 20 μl of anti-CD14-allophycocyanin (APC) (BD Pharmingen) in 200 μl of 0.01% bovine serum albumin (BSA)-PBS at 4° C. for 50 min while spinning to realize homogeneous fluorescent staining. After centrifugation (1,000 rpm, 10 min), the cell pellets thus obtained were washed three times with 0.01% bovine serum albumin (BSA) in PBS. Fluorescence was analyzed on a fluorescence-activated cell sorter (FACS) (Aria) using a Cellquest program.

HEL cells = assay: Megakaryocyte differentiation, CD41/CD61 expression over time by FACS, HEL cells; details: 5 μg/ml, 5 days
Method: HEL cells were aliquoted at a density of 3×10^5 cells per well in 6-well plates and treated with 5 μg/ml of (R)-NALPCE, followed by incubation for 5 days. After centrifugation (1,000 rpm, 5 min), the cell pellets thus obtained were washed three times with 0.01% bovine serum albumin (BSA) in PBS. The cells were incubated with 10 μl of anti-CD41-fluorescein-5-isothiocyanate (FITC) (Dako Chemicals, Carpenteria, Calif.) or 20 μl of anti-CD61-phycoerythrin (PE) (BD Pharmingen) in 200 μl 0.01% bovine serum albumin (BSA)-PBS at 4° C. for 50 min with spinning to realize homogeneous fluorescent staining. After centrifugation (1,000 rpm, 10 min), the cell pellets thus obtained were rinsed three times with 0.01% bovine serum albumin (BSA)-PBS. Fluorescence was analyzed on a fluorescence-activated cell sorter (FACS) (Aria) using a Cellquest program.

K562 cells [3] = assay: Differentiation of K562 cells layered on OP9 cells, CD41/CD61 by FACS
Method: OP9 cells were aliquoted at a density of 1×10^5 cells per well in 6-well plates and incubated for 24 hrs. After OP9 cells were uniformly attached onto the bottom of the plates, K562 cells were layered at a density of 1×10^5 cells per well over the OP cells in the 6-well plates. Treatment with 40 μg/ml of (R)-NALPCE was conducted before incubation in a day-dependent manner for 4 days. Following centrifugation (1,000 rpm, 5 min), the cell pellets thus obtained were rinsed three times with 0.01% bovine serum albumin (BSA) in PBS. Incubation with 10 μl of anti-CD41-fluorescein-5-isothiocyanate (FITC) (Dako Chemicals, Carpenteria, Calif.) and 20 μl of anti-CD61-phycoerythrin (PE) (BD Pharmingen) in 200 μl of 0.01% bovine serum albumin (BSA)-PBS was conducted at 4° C. for 50 min so as to achieve homogeneous fluorescent staining. After centrifugation (1,000 rpm, 10 min), the fluorescent-stained cell pellets thus obtained were washed three times with 0.01% bovine serum albumin (BSA) in PBS. Fluorescence was analyzed on a fluorescence-activated cell sorter (FACS) (Aria) using a Cellquest program.

K562 cells [4] = assay: Active form of platelet-like cells secreted from differentiated K562 cells, fluorescence microscopy
Method: OP9 cells were aliquoted at a density of 1×10^5 cells per well in 6-well plates and incubated for 24 hrs. After the OP9 cells were uniformly attached onto the bottom of the plates, K562 cells were layered at a density of 1×10^5 cells over the OP9 cells in the 6-well plates. The cells were treated with 40 μg/ml of (R)-NALPCE before incubation in a day-dependent manner for 5 days. […] The platelet-like cells were separated from the megakaryocytes by centrifuging the differentiated K562 cells at 500 rpm for 20 min and further centrifuging the supernatant at 3,000 rpm for 10 min.
A morphological comparison was made between the platelet-like cells and the pre-existing blood platelets using fibrinogen-coated slides. General slides (POLY-PREP, Sigma, U.S.A.) were coated with 20 μg/ml of fibrinogen in PBS ((R)-NALPCE-treated group) or with 1% bovine serum albumin (control) in PBS, and then incubated at 37° C. for 2 hrs in a humid atmosphere. A suspension of the separated platelet-like cells and the pre-existing blood platelets in PBS was placed on the slides. […] A drop of a mounting solution was spotted on the slides, which were then covered with a coverslip before observation under a fluorescence microscope. […] The cells thus stained were very gently washed three times with PBS and observed using a fluorescence microscope (Axiovision, Zeiss) with 400× magnification.

CCCCCCCCCCCCCCCCCC(=O)NC(COP(=O)([O-])OCC[N+](C)(C)C)C(=O)OC [(R)-NALPCE, N-steroyl-O-phosphocholine-D-serine methyl ester]
cytotoxicity on K562 cells (MTT) (K562 cells [1]): does not exert cytotoxicity
expression of CD41, CD16, glycophorin A and CD14 receptors (K562 cells [2]): CD41 and CD16 were specifically expressed
CD41 and CD61 expression rate (HEL cells): increase in expression rate in a day-dependent manner
increase in the count of CD41-positive cells, with OP9 cells versus alone (K562 cells [3]; K562 cells on OP9 cells, 40 μg/ml, 4 days): 15%
differentiation inductivity compared with PMA (K562 cells [3]; in combination with OP9 cells): comparable with the differentiation inductivity of PMA; also recorded: as good as that of PMA
appearance of anucleate platelet-like cells (K562 cells [4]; K562 cells on OP9 cells, 40 μg/ml, Day 5 after the treatment): a large number of anucleate platelet-like cells appeared
activation of released anucleate cells (K562 cells [4]; fibrinogen-coated slides, activators ADP, epinephrine, AYPGFK, MnCl2): activated in the same manner as the pre-existing blood platelets
